We go through five molecules from patent US4772599A, “Benzodiazepine derivatives and their preparation and use” (A/S Ferrosan, priority 1986, dated 1988).

For the assay, the system named is benzodiazepine receptors. In words: In vivo displacement of 3H-flunitrazepam from brain benzodiazepine receptors. The conditions noted are these: mice (female, NMR), test substance i.p. 15 min before 3H-FNM i.v.; dose inhibiting 50% of specific 3H-FNM binding in forebrain. An excerpt: The pharmaceutical properties of the compounds of the invention can be illustrated by determining their capability for displacing radioactivity labelled flunitrazepam from benzodiazepine receptors.
The displacement activity of the compounds of the invention may be found by determining the ED50 value. The ED50 value represents the dose (mg/kg) of a test substance which causes the specific binding of flunitrazepam to benzodiazepine receptors in a living brain to be reduced to 50% of the control value.
Such an in vivo test is carried out as follow:
Principle. Twenty minutes after a dose of ^3 H-flunitrazepam (^3 H-FNM) (200 μCi/kg, i.v.) the amount of specific ^3 H-FNM binding to brain benzodiazepine receptors has reached its maximal value.
Test procedure. Suspensions of test substances (2 mg/ml) are prepared in 5% Duphasol-X (TM Duphar, caster oil-ethylene oxide derivative for emulsifying and solubilizing oil and other water-insoluble substances) by sonification for 10 min using a Branson B15 microtip ultrasonifier (setting 7). Groups of three mice (female, NMR, 18-22 grams) are injected with the test substance at 100 mg/kg intraperitoneally. Fifteen minutes after test substance administration the mice are challenged with 4 μCi intravenously of ^3 H-FNM (70-90 Ci/mole) in 200 μl physiological saline. Twenty minutes after ^3 H-FNM administration mice are sacrificed by decapitation, the forebrains rapidly excised (within 30 sec) and homogenized in 12 ml of icecold 25 mM KH2 PO4, pH 7.1, using an Ultra-Turrax™ homogenizer fitted with an N 10 shaft. Two aliquots of 1 ml are immediately filtered through Whatman GF/C glassfibre filters and washed with 2×5 ml of the above mentioned buffer. The amounts of radioactivity on the filters are determined by conventional scintillation counting. One group of untreated mice serves as control. One to three mice are injected with 25 μg/kg clonazepam i.p. 30 minutes before ^3 H-FNM to determine the amount of non-specific ^3 H-FNM binding, which should be between 8-15% of total binding. When doses of 100 mg/kg inhibit more than 50% of specific ^3 H-flunitrazepam binding, test substances are administered in doses, which are factors of 3.16 times lower than 100 mg/kg. The ED50 for a test substance is defined as that dose which inhibits 50% of specific ^3 H-FNM binding. Specific binding is the amount of binding in controls minus the amount of binding in clonazepam-treated mice.
Results. The ED50 value is determined from dose response curves. If only one dose of test substance is administered the ED50 value is calculated as follows, provided that the inhibition of specific binding is within the range of 25-75%: [formula] where Co is specific binding in controls of Cx is specific binding in mice treated with test substance.
On the technique in general: In a radioligand displacement assay an active substance lowers the binding of a labelled ligand.
For the molecule `COC(=O)c1cccc2c1C(=O)N(C)Cc1c(-c3nc(C4CC4)no3)ncn1-2`, the “In vivo displacement activity: ED50” value was 0.4 mg/kg.
With `CCc1noc(-c2cccc3c2C(=O)N(C)Cc2c(-c4nc(CC)no4)ncn2-3)n1`, the “In vivo displacement activity: ED50” value was found to be 1.3 mg/kg.
In the case of `CCOC(=O)c1cccc2c1C(=O)N(C)Cc1c(-c3nc(C4CC4)no3)ncn1-2`, the “In vivo displacement activity: ED50” value stood at 1.4 mg/kg.
Take `Cc1nc(-c2ncn3c2CN(C)C(=O)c2c(-c4nc(-c5ccccc5)no4)cccc2-3)no1`: the “In vivo displacement activity: ED50” value turned out to be 1.7 mg/kg.
Consider `CCOC(=O)c1cccc2c1C(=O)N(C)Cc1c(-c3noc(C)n3)ncn1-2`, for which the “In vivo displacement activity: ED50” value came out at 1.5 mg/kg.
